Each structure is given as a SMILES string. Where two headings read alike, the source gives them in different places. Starred links: 1 amine or outer side, 2 acyl side, 3 side chain; linkers in the order of their positions; H or OH if unused. Non-standard residues stand in square brackets, D forms with d. Residues, ends and D or L forms follow the SMILES beside them. X22 = C[C@H](CN1CCN(C2CCC2)CC1)[C@@H](C(=O)[*:2])N(C)[*:1]; X6 = C[C@@H](CN1CCN(C2COC2)CC1)[C@@H](C(=O)[*:2])N(C)[*:1]; X19 = COCCN1CCN(C[C@H](C)[C@@H](C(=O)[*:2])N(C)[*:1])CC1; X8 = COCCN1CCN(C[C@@H](C)[C@@H](C(=O)[*:2])N(C)[*:1])CC1; NMe(dihydroBmt) = CCCC[C@@H](C)[C@@H](O)[C@H](NC)C(=O)O; X23 = COC1CN(C[C@@H](C)[C@@H](C(=O)[*:2])N(C)[*:1])C1; X20 = C[C@H](CCCN1CCOCC1)[C@@H](C(=O)[*:2])N(C)[*:1]; MeBmt = C/C=C/C[C@@H](C)[C@@H](O)[C@H](NC)C(=O)O; X15 = COCC(COC)[C@@H](C(=O)[*:2])N(C)[*:1]; NMeL = CN[C@@H](CC(C)C)C(=O)O; NMeV = CN[C@H](C(=O)O)C(C)C; dNMeA = CN[C@H](C)C(=O)O; Abu = CC[C@H](N)C(=O)O

Data set [1] has as its system genotype 1b subgenomic HCV replicon in Huh7.5 cells. Type of data set: cell-based, hepatitis C virus. To be noted: read-out: RPLN-1b IC50. Put shortly:
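Huh7.5 cells carrying genotype 1b subgenomic HCV replicon with renilla luciferase-neomycin reporter, in phenol red-free DMEM without G418. Luciferase measured after 72 h compound exposure relative to DMSO-treated cells; cytotoxicity (CC50) by Cell Titer-Glo.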

Data set [2] deals with peripheral blood mononuclear cells (PBMC). Briefly: Anti-proliferative or immunosuppressive activity, BrdU incorporation in PHA-stimulated PBMC. In kind it is cell-based. The settings on record: PHA 3 μg/ml, 60 hour compound treatment; read-out: EMV PBMC IC50. In a few lines: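 Fresh PBMCs from two donors, 30,000 per well in X-VIVO 15 medium, stimulated with 3 μg/ml PHA to drive T-cell proliferation. Proliferation measured as BrdU incorporation into DNA by BrdU ELISA.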
On the technique in general: Incorporation of labelled thymidine or its analogues reports DNA synthesis.

Data set [3] concerns the target CYP3A4 (Homo sapiens (Human), UniProt P08684). Briefly: Time-dependent inhibition of CYP3A4.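 Also: Two-step in vitro assay, kobs derived from residual CYP3A4 activity versus preincubation time per concentration, then kinact and KI by nonlinear fit of kobs against concentration.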
Experimental: Method 5: Measuring Time-Dependent Inhibition of CYP3A4
The CYP3A4 time dependent inhibition potential of various inhibitors was determined by a two step in vitro assay. […] The inactivation rate constant (kobs) was obtained by plotting the activity remaining over pre-incubation time for each concentration of compound. The maximal inactivation rate (kinact) and the inactivation potency (KI) were calculated by non linear regression analysis of the inactivation rate constant (kobs) versus compound concentrations [I] curve according to the equation kobs=[kinact·[I]]/[KI+[I]]
For data set [4], the target named is cyclophilin B (CypB) (Homo sapiens (Human), UniProt P23284). Briefly: Inhibitor binding to cyclophilin proteins by SPR, CypB. The settings on record: 1:1 binding model. More on the design: unit not given here. In a few lines: (§1)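 Mono-biotinylated avi-tagged cyclophilins captured on a Biotin CAPture chip. Single-cycle kinetics at 50 μL/min, 1 min contacts, 10 min final dissociation, in 10 mM HEPES pH 7.4, 150 mM NaCl, 0.05% P20, 3% DMSO. kon, koff and KD from a 1:1 binding model.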

Data set [5] concerns the target cyclophilin A (CypA) (Homo sapiens (Human), UniProt P62937). The data set can be described thus: Inhibitor binding to cyclophilin proteins by SPR, CypA.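 Also: Single-cycle kinetics on a Biacore T200, compound injected at several concentrations for 1 min each at 50 µL/min, then 10 min dissociation, in HEPES pH 7.4 buffer with 3% DMSO.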 Details: unit not given here. The settings on record: 1:1 binding model.
Data set [6] deals with CypF (Homo sapiens (Human), UniProt P30405). The data set can be described thus: Inhibitor binding to cyclophilin proteins by SPR, CypF. The settings on record: 1:1 binding model. Put shortly:
as §1

In data set [7] the target is organic anion transporting polypeptide 1B1 (OATP1B1) (Homo sapiens (Human), UniProt Q9Y6L6). Briefly: OATP assay in CHO-OATP1B1 cells.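 Also: inhibition of probe substrate uptake into the cells, ten minutes exposure, accumulated substrate read by fluorescence once cells were lysed.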
Experimental: In order to determine whether the compounds of the present invention interact with hepatic transporters, experiments were carried out that compared the concentration-dependent inhibition toward the organic anion transporting polypeptide 1B1 (OATP1B1) and the multidrug resistance associated protein 2 (MRP2).
The cells were cultured in DMEM/F12 +10% FBS+2 mM Ala-Gln+1% Pen-Strep for a period of two days, and the media was changed one day post-seeding. Prior to the assay, media was aspirated and were washed −3× with HBSS+10 mM HEPES and the solution was equilibrated for 15 min in HBSS+10 mM HEPES. Solutions containing the inhibitor were prepared in HBSS+10 mM HEPES (up to 1% DMSO). […] After 10 min, the substrate or substrate/inhibitor solution was aspirated and the cells were washed 3× with HBSS+10 mM HEPES. The amount of the transported probe substrate was determined by fluorescent photometry after cell lysis, and the IC50 was derived from the concentration-response curve.
Where [8] appears, read: genotype 1b replicon, 72 h incubation.

CYP3A4, sequence (P08684 whole entry): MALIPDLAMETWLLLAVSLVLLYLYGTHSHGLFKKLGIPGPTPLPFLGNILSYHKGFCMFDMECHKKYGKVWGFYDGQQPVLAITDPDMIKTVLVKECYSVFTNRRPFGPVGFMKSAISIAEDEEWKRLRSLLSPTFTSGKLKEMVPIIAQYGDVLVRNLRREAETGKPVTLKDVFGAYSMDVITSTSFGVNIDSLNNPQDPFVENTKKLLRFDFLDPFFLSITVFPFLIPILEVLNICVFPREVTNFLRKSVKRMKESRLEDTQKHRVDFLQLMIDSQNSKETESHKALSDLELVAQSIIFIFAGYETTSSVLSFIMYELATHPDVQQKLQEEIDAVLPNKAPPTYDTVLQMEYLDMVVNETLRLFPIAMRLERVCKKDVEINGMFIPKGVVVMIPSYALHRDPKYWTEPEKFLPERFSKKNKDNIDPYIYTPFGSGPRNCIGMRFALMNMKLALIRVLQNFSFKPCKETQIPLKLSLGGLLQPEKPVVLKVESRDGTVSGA
cyclophilin A (CypA), sequence (P62937 whole entry): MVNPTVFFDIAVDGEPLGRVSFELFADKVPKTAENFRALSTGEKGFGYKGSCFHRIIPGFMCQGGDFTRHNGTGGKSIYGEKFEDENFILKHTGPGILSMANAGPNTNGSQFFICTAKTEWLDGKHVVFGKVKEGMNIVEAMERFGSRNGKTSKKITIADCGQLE
organic anion transporting polypeptide 1B1 (OATP1B1), sequence (Q9Y6L6 whole entry): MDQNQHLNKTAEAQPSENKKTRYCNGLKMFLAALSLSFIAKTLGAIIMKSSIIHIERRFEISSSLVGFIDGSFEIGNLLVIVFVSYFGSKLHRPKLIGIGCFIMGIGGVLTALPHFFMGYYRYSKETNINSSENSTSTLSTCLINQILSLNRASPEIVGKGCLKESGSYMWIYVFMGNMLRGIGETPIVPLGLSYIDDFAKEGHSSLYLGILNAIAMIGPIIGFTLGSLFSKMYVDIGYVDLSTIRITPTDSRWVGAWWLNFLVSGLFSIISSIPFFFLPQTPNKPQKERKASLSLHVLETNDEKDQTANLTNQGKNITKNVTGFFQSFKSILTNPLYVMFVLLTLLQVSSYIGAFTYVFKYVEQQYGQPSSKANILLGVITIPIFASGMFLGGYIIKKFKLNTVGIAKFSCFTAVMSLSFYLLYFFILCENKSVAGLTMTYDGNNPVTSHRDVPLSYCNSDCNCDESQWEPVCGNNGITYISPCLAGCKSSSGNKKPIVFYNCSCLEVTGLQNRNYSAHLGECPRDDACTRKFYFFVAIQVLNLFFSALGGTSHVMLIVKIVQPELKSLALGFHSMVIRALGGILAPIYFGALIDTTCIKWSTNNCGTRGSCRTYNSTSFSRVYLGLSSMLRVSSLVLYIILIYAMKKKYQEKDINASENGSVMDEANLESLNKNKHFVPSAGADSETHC
CypF, sequence (P30405 30-207): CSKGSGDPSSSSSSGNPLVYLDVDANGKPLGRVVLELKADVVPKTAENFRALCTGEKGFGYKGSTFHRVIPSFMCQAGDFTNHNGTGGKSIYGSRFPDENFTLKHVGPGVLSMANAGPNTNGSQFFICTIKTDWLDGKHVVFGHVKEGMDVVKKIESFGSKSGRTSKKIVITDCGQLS
cyclophilin B (CypB), sequence (P23284 34-216): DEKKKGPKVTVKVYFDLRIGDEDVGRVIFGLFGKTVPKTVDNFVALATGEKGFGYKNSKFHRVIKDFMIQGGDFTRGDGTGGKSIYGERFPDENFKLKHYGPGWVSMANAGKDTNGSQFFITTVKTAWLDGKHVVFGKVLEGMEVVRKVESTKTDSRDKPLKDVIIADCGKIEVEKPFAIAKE

Broadly, the IC50 is the concentration needed to halve the response being measured. `C/C=C/C[C@@H](C)[C@@H](O)[C@H]1C(=O)N[C@@H](CC)C(=O)N(C)[C@H](C)C(=O)N(C)[C@@H]([C@H](C)CCCN2CCOCC2)C(=O)N[C@@H](C(C)C)C(=O)N(C)[C@@H](CC(C)C)C(=O)N[C@@H](C)C(=O)N[C@H](C)C(=O)N(C)[C@@H](CC(C)C)C(=O)N(C)[C@@H](CC(C)C)C(=O)N(C)[C@@H](C(C)C)C(=O)N1C` [Compound 2.19.1, 3-[D-Ala]-4-[(2S,3R)-3-methyl-2-(methylamino)-6-morpholinohexanoyl]-cyclosporin] (cyclo([MeBmt][Abu][dNMeA][X20]V[NMeL]A[dA][NMeL][NMeL][NMeV])): the results for the IC50 in data set [1], in data set [2] and in data set [7] were 38 nM, 16600 nM and 6900 nM, respectively. Further, in data set [3] (probe substrate midazolam), the “NIM TDI kinact/Ki” value amounted to 17 M⁻¹ s⁻¹. The “CypB Kd” value in data set [4] stood at 0.5. In data set [5], the “CypA Kd” value was 0.9. Besides, in data set [6], the CypF Kd came to 0.5 nM.
In the case of `C/C=C/C[C@@H](C)[C@@H](O)[C@H]1C(=O)N[C@@H](CC)C(=O)N(C)[C@H](C)C(=O)N(C)[C@@H]([C@H](C)CN2CCN(C3CCC3)CC2)C(=O)N[C@@H](C(C)C)C(=O)N(C)[C@@H](CC(C)C)C(=O)N[C@@H](C)C(=O)N[C@H](C)C(=O)N(C)[C@@H](CC(C)C)C(=O)N(C)[C@@H](CC(C)C)C(=O)N(C)[C@@H](C(C)C)C(=O)N1C` [Compound 2.5.14, 3-[D-Ala]-4[(2S,3R)-2-Amino-4-(4-cyclobutyl-piperazin-1-yl)-butanoyl]-cyclosporin] (cyclo(A[dA][NMeL][NMeL][NMeV][MeBmt][Abu][dNMeA][X22]V[NMeL])), the IC50 is 32 nM in data set [1] (setting [8]), 8100 nM in data set [2] and 5200 nM in data set [7]. The same molecule displayed a Ki in data set [3] of over 50000 nM. In addition, the “CypB Kd” value in data set [4] is on record as 0.7. Besides, in data set [5], the “CypA Kd” value is reported as 1.0. Further, in data set [6], the CypF Kd came out at 0.5 nM.
As to `CCCC[C@@H](C)[C@@H](O)[C@H]1C(=O)N[C@@H](CC)C(=O)N(C)[C@H](C)C(=O)N(C)[C@@H]([C@@H](C)CN2CCN(CCOC)CC2)C(=O)N[C@@H](C(C)C)C(=O)N(C)[C@@H](CC(C)C)C(=O)N[C@@H](C)C(=O)N[C@H](C)C(=O)N(C)[C@@H](CC(C)C)C(=O)N(C)[C@@H](CC(C)C)C(=O)N(C)[C@@H](C(C)C)C(=O)N1C` [Compound 2.17.6, 1-dihydro-3-[D-Ala]-4[(2S,3S)-2-Amino-4-[4-(2-methoxy-ethyl)-piperazin-1-yl]-3-methyl-butanoyl]-cyclosporin] (cyclo(A[dA][NMeL][NMeL][NMeV][NMe(dihydroBmt)][Abu][dNMeA][X19]V[NMeL])), the IC50 in data set [1] (setting [8]) worked out at 20 nM; in data set [2] it was 14600 nM; in data set [7], 3300 nM. The Ki in data set [3] was over 50000 nM. Moreover, the “CypB Kd” value in data set [4] was 0.6. In addition, in data set [5], the “CypA Kd” value is given as 0.9. The same molecule showed a CypF Kd in data set [6] of 0.5 nM.
For `C/C=C/C[C@@H](C)[C@@H](O)[C@H]1C(=O)N[C@@H](CC)C(=O)N(C)[C@H](C)C(=O)N(C)[C@@H]([C@@H](C)CN2CCN(C3COC3)CC2)C(=O)N[C@@H](C(C)C)C(=O)N(C)[C@@H](CC(C)C)C(=O)N[C@@H](C)C(=O)N[C@H](C)C(=O)N(C)[C@@H](CC(C)C)C(=O)N(C)[C@@H](CC(C)C)C(=O)N(C)[C@@H](C(C)C)C(=O)N1C` [Compound 2.17.5, 3-[D-Ala]-4[(2S,3S)-2-Amino-3-methyl-4-(4-oxetan-3-yl-piperazin-1-yl)-butanoyl]-cyclosporin] (cyclo(A[dA][NMeL][NMeL][NMeV][MeBmt][Abu][dNMeA][X6]V[NMeL])), the IC50 came out at 33 nM in data set [1] (setting [8]), 35200 nM in data set [2] and 1800 nM in data set [7]. Moreover, the Ki in data set [3] was over 50000 nM. The “CypB Kd” value in data set [4] is on record as 0.5. Also, the “CypA Kd” value in data set [5] is 0.7. In data set [6], this molecule came in with a CypF Kd of 0.4 nM.
On to `C/C=C/C[C@@H](C)[C@@H](O)[C@H]1C(=O)N[C@@H](CC)C(=O)N(C)[C@H](C)C(=O)N(C)[C@@H]([C@H](C)CN2CC(OC)C2)C(=O)N[C@@H](C(C)C)C(=O)N(C)[C@@H](CC(C)C)C(=O)N[C@@H](C)C(=O)N[C@H](C)C(=O)N(C)[C@@H](CC(C)C)C(=O)N(C)[C@@H](CC(C)C)C(=O)N(C)[C@@H](C(C)C)C(=O)N1C` [Compound 2.5.17, 3-[D-Ala]-4-[(2S,3R)-4-(3-methoxyazetidin-1-yl)-3-methyl-2-(methylamino)butanoyl]-cyclosporin] (cyclo(A[dA][NMeL][NMeL][NMeV][MeBmt][Abu][dNMeA][X23]V[NMeL])), for which the IC50 was 44 nM in data set [1] (setting [8]), 17600 nM in data set [2] and 4200 nM in data set [7]. This molecule also registered a Ki in data set [3] of over 50000 nM. Besides, the “CypB Kd” value in data set [4] came out at 0.9. The “CypA Kd” value in data set [5] worked out at 1.9. The CypF Kd in data set [6] turned out to be 1 nM.
For `C/C=C/C[C@@H](C)[C@@H](O)[C@H]1C(=O)N[C@@H](CC)C(=O)N(C)[C@H](C)C(=O)N(C)[C@@H]([C@H](C)CN2CCN(CCOC)CC2)C(=O)N[C@@H](C(C)C)C(=O)N(C)[C@@H](CC(C)C)C(=O)N[C@@H](C)C(=O)N[C@H](C)C(=O)N(C)[C@@H](CC(C)C)C(=O)N(C)[C@@H](CC(C)C)C(=O)N(C)[C@@H](C(C)C)C(=O)N1C` [Compound 2.5.10, 3-[D-Ala]-4[(2S,3R)-2-Amino-4-[4-(2-methoxy-ethyl)-piperazin-1-yl]-3-methyl-butanoyl]-cyclosporin] (cyclo([MeBmt][Abu][dNMeA][X8]V[NMeL]A[dA][NMeL][NMeL][NMeV])), the IC50 in data set [1] stood at 39 nM; in data set [2], 16800 nM; in data set [7] it was 6100 nM. For the same molecule, the KI (inactivation) in data set [3] is over 50000 nM. Further, the “CypB Kd” value in data set [4] is reported as 1.2. Besides, the “CypA Kd” value in data set [5] worked out at 1.2. For the same molecule, in data set [6], the CypF Kd worked out at 0.9 nM.
For `C/C=C/C[C@@H](C)[C@@H](O)[C@H]1C(=O)N[C@@H](CC)C(=O)N(C)[C@H](C)C(=O)N(C)[C@@H]([C@H](C)CO[C@H]2CCOC2)C(=O)N[C@@H](C(C)C)C(=O)N(C)[C@@H](CC(C)C)C(=O)N[C@@H](C)C(=O)N[C@H](C)C(=O)N(C)[C@@H](CC(C)C)C(=O)N(C)[C@@H](CC(C)C)C(=O)N(C)[C@@H](C(C)C)C(=O)N1C` (stereo in doubt) [Compound 2.16], the IC50 came out at 25 nM in data set [1], 13700 nM in data set [2] and 1900 nM in data set [7]. Further, the Ki in data set [3] is over 50000 nM. Also, the “CypB Kd” value in data set [4] was determined as 0.5. Besides, the “CypA Kd” value in data set [5] was 1.0. In data set [6], this molecule came in with a CypF Kd of 0.4 nM.
Consider `C/C=C/C[C@@H](C)[C@@H](O)[C@H]1C(=O)N[C@@H](CC)C(=O)N(C)[C@H](C)C(=O)N(C)[C@@H](C(COC)COC)C(=O)N[C@@H](C(C)C)C(=O)N(C)[C@@H](CC(C)C)C(=O)N[C@@H](C)C(=O)N[C@H](C)C(=O)N(C)[C@@H](CC(C)C)C(=O)N(C)[C@@H](CC(C)C)C(=O)N(C)[C@@H](C(C)C)C(=O)N1C` [Compound 2.11, 3-[D-Ala]-4-[(S)-4-methoxy-3-(methoxymethyl)-2-(methylamino)butanoyl]-cyclosporin] (cyclo(A[dA][NMeL][NMeL][NMeV][MeBmt][Abu][dNMeA][X15]V[NMeL])), for which the results for the 50% inhibitory concentration (IC50) in data set [1] (setting [8]), in data set [2] and in data set [7] were 58 nM, 7900 nM and 2600 nM, respectively. The Ki in data set [3] was over 50000 nM. Moreover, the “CypB Kd” value in data set [4] came out at 1.3. Besides, the “CypA Kd” value in data set [5] is 1.9. The molecule also had a CypF Kd in data set [6] of 1.2 nM.

The record behind these values is patent publication US9566312B2, “Cyclic peptides and use as medicines” (priority 2012, dated 2017).
